Experimental data taken from patent US11472843B2, “Malacidins and methods of use” (The Rockefeller University, priority 2017, dated 2022).

Tests used:
[1] = system: Cryptococcus neoformans ATCC 32045; assay: MIC assay, C. neoformans; assay type: cell-based
Protocol: (§1) MIC assays were performed in duplicate in 96-well microtiter plates on the basis of the protocol recommended by the Clinical and Laboratory Standards Institute (Cockerill, 2012, Clinical and Laboratory Standards Institute). All presented data are the average of at least three independent assays. Stock solutions of malacidin or daptomycin (2 mg ml^−1 in H2O) were added to the first well in a row and serially diluted (twofold per transfer) across the microtiter plate. CaCl2 was supplemented to media at a final concentration of 15 mM and fetal bovine serum (ATCC) was added to media (1:10) to test the effect of serum. Overnight cultures of bacteria were diluted 5,000-fold, and 50 μl was used as an inoculum in each well. MIC values were determined by visual inspection after 18 h incubation (30° C., static growth). For the enhanced calcium titration experiments, standard MIC assays were performed with methicillin-resistant Staphylococcus aureus (MRSA) PFGE strain type USA300 in media supplemented with CaCl2 at: 25.0, 18.8, 14.1, 7.03, 3.52, 2.50, 1.76, 0.880, 0.440, 0.250 and 0 mM. To assess the effects of monovalent and divalent cations on malacidin activity, standard MIC assays were performed with MRSA USA300 in media supplemented with 15 mM CaCl2, MgCl2, MnCl2, ZnCl2, SrCl2, NaCl and KCl. To evaluate the effects of pulmonary surfactants on activity against a community-acquired pneumonia-causing pathogen, standard MIC assays were performed with Streptococcus pneumoniae TCH8431 in media supplemented with both 15 mM […] and Survanta (beractant) at a final concentration of 5, 1, 0.5, 0.25 or 0% (volume/volume (v/v) percent).

[2] = system: Acinetobacter baumannii ATCC 17978; assay: MIC assay, A. baumannii; assay type: cell-based; conditions: range of at least three independent experiments
Protocol: as §1

[3] = system: Klebsiella pneumonia ATCC 10031; assay: MIC assay, Klebsiella pneumonia; assay type: cell-based
Protocol: as §1

[4] = system: Methicillin-resistant Staphylococcus aureus strain MW2; assay: Rat cutaneous wound infection model; assay type: in vivo, Sprague Dawley rats; conditions: topical, 0.5 mg daily in 25 mM CaCl2
Protocol: Methicillin-resistant Staphylococcus aureus strain MW2 was grown in Mueller Hinton broth at 37° C. with shaking overnight. The culture was centrifuged, supernatant aspirated and the bacteria were gently washed once in sterile saline. The optical density was determined at 600 nm. The bacterial suspension was diluted to provide a challenge inoculum of approximately 500 CFU per wound in a volume of 0.05 ml in sterile 0.9% NaCl. The inoculum count was verified by viable counts on Mannitol Salt Agar plates spread with proper dilutions of the inoculum and incubated at 37° C. for 24-48 h. For the wound infection model, 8-week-old male (˜200 g) Sprague Dawley rats were given two wounds each. Two rats were used at each time point (day 1 and day 3) for each treatment group for a total of 4 rats (8 wounds) per drug. This sample size was statistically calculated on the basis of previous in-house wound burden studies comparing vehicle-treated groups with antibiotic controls. Rats were randomly selected into the treatment groups. […] At 1 day and 3 days post infection, the rats were humanely euthanized and wounds were excised and assessed for bacterial burdens by plating on MSA. […] Abnormal clinical signs were recorded if observed.

[5] = system: UDP-MurNAc-pentapeptide in MRSA USA300; assay: UDP-MurNAc-pentapeptide accumulation assay; assay type: cell-based, Staphylococcus aureus; conditions: 10 μg ml^−1, 60 min, UPLC-MS
Protocol: The intracellular accumulation of the cell wall precursor UDP-MurNAc-pentapeptide after treatment of MRSA USA300 with malacidin was assessed as previously described (Schneider et al., […], Antimicrob Agents Ch 53:1610-18). In brief, single colonies of MRSA USA300 were grown in LB media with and without 15 mM CaCl2 to an OD600 nm of 0.6. […] of cells and medium were incubated with a final concentration of 130 μg ml^−1 chloramphenicol for 15 min at 37° C. Antibiotics to be assayed were added at 10 μg ml^−1 and incubated for 60 min at 37° C. Vancomycin, known to form a complex with lipid II, was used as a positive control. Cells were collected by centrifugation, and resuspended in 30 μl dH2O and incubated in boiling water for 15 min. The cell extract was then centrifuged at 14,000 g. Supernatant was analysed for UDP-linked cell wall precursors by a UPLC-MS system. Experiments were performed with biological replicates.

malacidin A
MIC ([1]; C. neoformans, 15 mM CaCl2): >100 μg m1^−1 | MIC ([1]; Cryptococcus neoformans ATCC 32045): >100 µg/mL | MIC [2]: >100 mg/L | MIC [3]: >100 mg/L | Bacterial burden in the wounds ([4]; 24 hours post infection): no observed bacterial burdens | Bacterial burden in the wounds ([4]; 72 hours post infection): no observed bacterial burdens | Accumulation of cell wall intermediate UDP-MurNAc-pentapeptide [5]: accumulation of the cell wall intermediate UDP-MurNAc-pentapeptide
